Experimental data published in patent US8455534B2, “Estrogen receptor modulators and uses thereof” (Aragon Pharmaceuticals, Inc., priority 2010, dated 2013).

Tests used:
[1] = test system: MCF-7 cells; assay: Breast Cancer Cell Viability Assay (MCF-7, CellTiter-Glo); format: cell-based; conditions: 5 days' compound exposure; for IC50: Homo sapiens, MCF7, 120 h
How it was run: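 MCF-7 cells, 320 per well in RPMI with 10% FBS and 20 mM HEPES, adhered overnight, then exposed 5 days to an eleven-point semilog dilution (final 0.3-0.000003 μM). CellTiter-Glo luminescence read; % viability = (sample − cell-free background)/(untreated − background) × 100.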

[2] = biological target: T1, ER-α (Homo sapiens, UniProt P03372); assay: Breast Cancer Cell ER-α In Cell Western Assay (SP1); format: cell-based; conditions: MCF-7 cells, SP1 antibody, 4 or 24 hr post compound addition; for Emax: MCF7, read-out: ER-α In Cell Western Assay (SP1) Max Response; for DC50: read-out: ER-α In Cell Western Assay (SP1) IC50
T1 sequence (P03372 1-595): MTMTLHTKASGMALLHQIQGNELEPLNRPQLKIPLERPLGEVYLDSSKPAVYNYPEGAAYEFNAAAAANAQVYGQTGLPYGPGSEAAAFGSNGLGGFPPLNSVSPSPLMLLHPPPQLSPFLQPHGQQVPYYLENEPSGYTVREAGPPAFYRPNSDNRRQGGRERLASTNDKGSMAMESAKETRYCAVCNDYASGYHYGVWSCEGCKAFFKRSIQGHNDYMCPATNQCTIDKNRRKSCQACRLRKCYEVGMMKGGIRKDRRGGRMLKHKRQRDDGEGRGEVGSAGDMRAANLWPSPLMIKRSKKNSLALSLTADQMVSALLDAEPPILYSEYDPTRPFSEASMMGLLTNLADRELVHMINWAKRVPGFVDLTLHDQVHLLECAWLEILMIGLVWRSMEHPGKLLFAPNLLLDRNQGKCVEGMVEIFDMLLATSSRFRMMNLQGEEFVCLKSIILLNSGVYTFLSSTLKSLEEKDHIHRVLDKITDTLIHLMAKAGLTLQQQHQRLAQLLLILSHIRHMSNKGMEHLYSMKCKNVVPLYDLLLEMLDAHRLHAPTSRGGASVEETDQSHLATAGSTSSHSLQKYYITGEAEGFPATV
How it was run: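 ER-α protein levels measured by in-cell western with SP1 antibody, ratioed to DRAQ5 DNA signal and given as percent of untreated controls. Compounds added at 0.3–0.000003 μM final (eleven semilog points) to adherent MCF-7 cells in stripped serum; exposure 4 or 24 h before fixation.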

Row | Compound | MCF7 Viability Assay Max Response [1] | IC50 [1] [nM] | Emax [2] [%] | DC50 [2] [nM]
1 | CC/C(=C(/c1ccc(/C=C/C(=O)O)cc1)c1ccc2[nH]ncc2c1)c1cccc(C#N)c1C [Compound 141, (E)-3-(4-((E)-2-(3-Cyano-2-methylphenyl)-1-(1H-indazol-5-yl)but-1-en-1-yl)phenyl)acrylic acid] | ++ (++ = a single % value ≧ 40%) | > 100 | ≥ 40 | ≤ 100
2 | CC/C(=C(/c1ccc(/C=C/C(=O)O)cc1)c1ccc2[nH]ncc2c1)c1ccccc1Cl [Compound 14, (E)-3-(4-((E)-2-(2-chlorophenyl)-1-(1H-indazol-5-yl)but-1-en-1-yl)phenyl)acrylic acid] | ++ (++ = a single % value ≧ 40%) | ≤ 100 | ≥ 40 | –
3 | O=C(O)/C=C/c1ccc(/C(=C(\c2ccc(F)cc2Cl)C2CC2)c2ccc3[nH]ncc3c2)cc1 [Compound 115, (E)-3-(4-((E)-2-(2-Chloro-4-fluorophenyl)-2-cyclopropyl-1-(1H-indazol-5-yl)vinyl)phenyl)acrylic acid] | ++ (++ = a single % value ≧ 40%) | ≤ 100 | ≥ 40 | ≤ 100
4 | CCOC(=O)/C=C/c1ccc(/C(=C(/CC)c2ccccc2)c2ccc3[nH]ncc3c2)cc1 [Compound 1, (E)-Ethyl 3-(4-((E)-1-(1H-indazol-5-yl)-2-phenylbut-1-en-1-yl)phenyl)acrylate] | + (+ = a single % value < 40%) | ≤ 100 | ≥ 40 | ≤ 100
5 | CC/C(=C(/c1ccc(/C=C/C(=O)O)cc1)c1cc(F)c2[nH]ncc2c1)c1ccccc1 [Compound 62, (E)-3-(4-((E)-1-(7-Fluoro-1H-indazol-5-yl)-2-phenylbut-1-en-1-yl)phenyl)acrylic acid] | ++ (++ = a single % value ≧ 40%) | ≤ 100 | ≥ 40 | ≤ 100
6 | O=C(O)/C=C/c1ccc(/C(=C(/CCF)c2ccc(Cl)cc2Cl)c2ccc3[nH]ncc3c2F)cc1 [Compound 122, (E)-3-(4-((E)-2-(2,4-Dichlorophenyl)-4-fluoro-1-(4-fluoro-1H-indazol-5-yl)but-1-en-1-yl)phenyl)acrylic acid] | ++ (++ = a single % value ≧ 40%) | ≤ 100 | ≥ 40 | ≤ 100
7 | O=C(O)/C=C/c1ccc(/C(=C(\c2ccc(F)cc2Cl)C2CC2)c2ccc3[nH]ncc3c2F)cc1 [Compound 124, (E)-3-(4-((E)-2-(2-Chloro-4-fluorophenyl)-2-cyclopropyl-1-(4-fluoro-1H-indazol-5-yl)vinyl)phenyl)acrylic acid] | ++ (++ = a single % value ≧ 40%) | ≤ 100 | ≥ 40 | ≤ 100
8 | CCOC(=O)/C=C/c1ccc(/C(=C(/CC)c2ccc(F)cc2)c2ccc3[nH]ncc3c2)cc1 [Compound 90, (E)-Ethyl 3-(4-((E)-2-(4-fluorophenyl)-1-(1H-indazol-5-yl)but-1-en-1-yl)phenyl)acrylate] | + (+ = a single % value < 40%) | ≤ 100 | ≥ 40 | ≤ 100
9 | COCC/C(=C(/c1ccc(/C=C/C(=O)O)cc1)c1ccc2[nH]ncc2c1)c1ccccc1 [Compound 47, (E)-3-(4-((E)-1-(1H-Indazol-5-yl)-4-methoxy-2-phenylbut-1-en-1-yl)phenyl)acrylic acid] | ++ (++ = a single % value ≧ 40%) | ≤ 100 | ≥ 40 | ≤ 100
10 | O=C(O)/C=C/c1ccc(/C(=C(/CCCl)c2ccc(F)cc2Cl)c2ccc3[nH]ncc3c2F)cc1 [Compound 77, (E)-3-(4-((E)-4-Chloro-2-(2-chloro-4-fluorophenyl)-1-(4-fluoro-1H-indazol-5-yl)but-1-en-1-yl)phenyl)acrylic acid] | ++ (++ = a single % value ≧ 40%) | ≤ 100 | ≥ 40 | ≤ 100
11 | C/C(=C(/c1ccc(/C=C/C(=O)O)cc1)c1ccc2[nH]ncc2c1)c1ccccc1 [Compound 42, (E)-3-(4-((E)-1-(1H-Indazol-5-yl)-2-phenylprop-1-en-1-yl)phenyl)acrylic acid] | ++ (++ = a single % value ≧ 40%) | ≤ 100 | ≥ 40 | ≤ 100
12 | CC/C(=C(/c1ccc(/C=C/C(=O)O)cc1)c1ccc2[nH]nc(F)c2c1)c1ccccc1 [Compound 86, (E)-3-(4-((E)-1-(3-Fluoro-1H-indazol-5-yl)-2-phenylbut-1-en-1-yl)phenyl)acrylic acid] | ++ (++ = a single % value ≧ 40%) | ≤ 100 | ≥ 40 | ≤ 100
13 | CC/C(=C(/c1ccc(/C=C/C(=O)O)cc1)c1ccc2[nH]ncc2c1)c1cc(C#N)ccc1C [Compound 143, (E)-3-(4-((E)-2-(5-Cyano-2-methylphenyl)-1-(1H-indazol-5-yl)but-1-en-1-yl)phenyl)acrylic acid] | ++ (++ = a single % value ≧ 40%) | > 100 | ≥ 40 | ≤ 100
14 | CC/C(=C(/c1ccc(/C=C/C(=O)O)cc1)c1ccc2[nH]ncc2c1)c1ccc(C)cc1 [Compound 11, (E)-3-(4-((E)-1-(1H-Indazol-5-yl)-2-(p-tolyl)but-1-en-1-yl)phenyl)acrylic acid] | ++ (++ = a single % value ≧ 40%) | ≤ 100 | ≥ 40 | ≤ 100
15 | CC/C(=C(/c1ccc(/C=C/C(=O)O)cc1)c1ccc2[nH]ncc2c1)c1ccc(C#N)cc1C [Compound 142, (E)-3-(4-((E)-2-(4-Cyano-2-methylphenyl)-1-(1H-indazol-5-yl)but-1-en-1-yl)phenyl)acrylic acid] | ++ (++ = a single % value ≧ 40%) | ≤ 100 | ≥ 40 | –
16 | O=C(O)/C=C/c1ccc(/C(=C(\c2ccc(Cl)cc2Cl)C2CC2)c2ccc3[nH]ncc3c2)cc1 [Compound 125, (E)-3-(4-((E)-2-Cyclopropyl-2-(2,4-dichlorophenyl)-1-(1H-indazol-5-yl)vinyl)phenyl)acrylic acid] | ++ (++ = a single % value ≧ 40%) | ≤ 100 | ≥ 40 | ≤ 100
17 | CC/C(=C(/c1ccc(/C=C/C(=O)O)cc1)c1ccc2[nH]ncc2c1)c1cccc(Cl)c1 [Compound 15, (E)-3-(4-((E)-2-(3-Chlorophenyl)-1-(1H-indazol-5-yl)but-1-en-1-yl)phenyl)acrylic acid] | ++ (++ = a single % value ≧ 40%) | ≤ 100 | ≥ 40 | –
18 | CC/C(=C(/c1ccc(/C=C/C(=O)O)cc1)c1ccc2c(cnn2C)c1)c1ccccc1Cl [Compound 145, (E)-3-(4-((E)-2-(2-Chlorophenyl)-1-(1-methyl-1H-indazol-5-yl)but-1-en-1-yl)phenyl)acrylic acid] | ++ (++ = a single % value ≧ 40%) | ≤ 100 | ≥ 40 | ≤ 100
19 | CC/C(=C(/c1ccc(/C=C/C(=O)O)cc1)c1ccc2[nH]ncc2c1F)c1ccccc1 [Compound 49, (E)-3-(4-((E)-1-(4-Fluoro-1H-indazol-5-yl)-2-phenylbut-1-en-1-yl)phenyl)acrylic acid] | ++ (++ = a single % value ≧ 40%) | ≤ 100 | ≥ 40 | ≤ 100
20 | CC/C(=C(/c1ccc(/C=C/C(=O)O)cc1)c1cc(C)c2[nH]ncc2c1)c1ccccc1 [Compound 37, (E)-3-(4-((E)-1-(7-Methyl-1H-indazol-5-yl)-2-phenylbut-1-en-1-yl)phenyl)acrylic acid] | ++ (++ = a single % value ≧ 40%) | ≤ 100 | ≥ 40 | ≤ 100
21 | CC/C(=C(/c1ccc(/C=C/C(=O)O)c(C(F)(F)F)c1)c1ccc2[nH]ncc2c1)c1ccccc1 [Compound 107, (E)-3-(4-((Z)-1-(1H-Indazol-5-yl)-2-phenylbut-1-en-1-yl)-2-(trifluoromethyl)phenyl)acrylic acid] | ++ (++ = a single % value ≧ 40%) | > 100 | ≥ 40 | ≤ 100
22 | O=C(O)/C=C/c1ccc(/C(=C(\c2ccccc2)C2CC2)c2ccc3[nH]ncc3c2)cc1 [Compound 24, (E)-3-(4-((E)-2-Cyclopropyl-1-(1H-indazol-5-yl)-2-phenylvinyl)phenyl)acrylic acid] | ++ (++ = a single % value ≧ 40%) | ≤ 100 | ≥ 40 | ≤ 100
